Source: patent publication US20230189864A1, “NON-THERAPEUTIC METHODS FOR MAINTAINING A HEALTHY BODY WEIGHT OR LOSING BODY WEIGHT” (FrieslandCampina Nederland B.V., priority 2019, published 2023)

Legend:
[1] = test system: pooled fecal microbiota from healthy lean subjects; assay: TIM-2 in vitro fermentation model, SCFA analysis; type: cell-based, human
Text: The in vitro fermentation studies were done using the TIM-2 model. This is a validated, dynamic, computer-controlled model that simulates the human colon, mimicking body temperature, lumen pH, absorption of water and microbial metabolites through a semipermeable membrane inside the model, mixing and transporting the intestinal contents with peristaltic movements, using an anaerobic microbiota from human origin, it corresponds basically to the model as described in Minekus, M., et al. Appl. Microbiol. Biotechnol. 1999 53, 108 --- 114. doi: 10.1007/ s002530051622 and Kortman et al., Frontiers in Microbiology 2016, 6, 1481.
Characteristics of the movements of the contents in the TIM-2 system were simulated using an increase of the pH and peristaltic movements of the contents in the system using peristaltic pumps as described in Minekus, M (1998. Development and validation of a dynamic model of the gastrointestinal tract. PhD thesis, Delft University of Technology, The Netherlands).
SCFA analysis was performed at Brightlabs B.V., Venlo, The Netherlands), according to (Sáyago-Ayerdi SG, et al. Food Research International, E-pub date 13 Dec. 2017; Sayago Ayerdi et al Food Research International 118 (2019) 89-95).
Pooled fecal microbiota samples from 11 healthy lean subjects not suffering from any metabolic disease was used to inoculate the TIM-2 in vitro fermentation model.
The fecal microbiota was freshly sampled in and stored directly (within 2 h) on ice and under anaerobic conditions. Next, in an anaerobic cabinet, samples were diluted 1:1 with dialysate, and pooled at approximately equal weight, after which glycerol was added (to a final concentration of 12-13 w/w) and aliquots (30 ml/tube) were frozen in liquid nitrogen and stored at -80 ℃. […]
Samples (1 mL) were taken for SCFA analysis after 1, 2, 4, 6, 8 and 24 h after test product insertion; cumulative absolute amounts of SCFA were determined. […] The acids were detected using suppressed conductivity detection. […]

[2] = addition to infant formula; cited from earlier work
[3] = overweight men, cited from earlier work
[4] = TIM-2, microbiota of lean subjects (18.5 kg/m^2 ≤ BMI < 25 kg/m^2), 8-24 h, represents distal colon, single shot 7.5 g 2′-FL (± 7.5 g RS)
[5] = administered in the distal part of the colon

Molecule | SCFA levels and in particular acetate levels in the distal colon (in words) ([1]; TIM-2, lean subjects' microbiota) | Acetate produced between 8 and 24 hours after insertion of the test product [1, 4] [mmol] | SCFA produced between 8 and 24 hours after insertion of the test product [1, 4] [mmol] | safety and tolerance [2] | circulating plasma concentrations of peptide YY (PYY) [3, 5] | fat oxidation [3, 5] | energy expenditure or substrate oxidation ([3]; administered in the proximal colon)
2′-Fucosyllactose [2′-FL w/o RS] | increased | 12 | 21 | safe and well-tolerated | – | – | –
CC(=O)[O-].[Na+] [sodium acetate] | – | – | – | – | significantly increased | significantly increased | no effect
